Data: ChEMBL document CHEMBL1132968, “Substituent effects on the antibacterial activity of nitrogen-carbon-linked (azolylphenyl)oxazolidinones with expanded activity against the fastidious gram-negative organisms Haemophilus influenzae and Moraxella catarrhalis” (2000)
Converted amounts (≈) assume the structure as drawn.

Tests used:
Format in all cases: functional
Streptococcus pneumoniae = assay: Inhibitory activity against Streptococcus pneumoniae UC9912
Mus musculus [1] = assay: Dose(orally administered) required to cure 50% of Staphylococcus aureus infected mice in the presence of vancomycin; settings: po
[2] = system: Staphylococcus epidermidis; assay: Inhibitory activity against Methicillin-resistant Staphylococcus epidermidis UC12084
Mus musculus [3] = assay: Dose(orally administered) required to cure 50% of Staphylococcus aureus infected mice; settings: po
Staphylococcus aureus [4] = assay: Inhibitory activity against Methicillin-susceptible Staphylococcus aureus UC9213
Mus musculus [5] = assay: Dose required to cure 50% of Staphylococcus aureus infected mice in the presence of eperezolid when administered orally; value ranges from 4.0-26.7; settings: po
Moraxella catarrhalis = assay: Inhibitory activity against Moraxella catarrhalis UC30610
Mus musculus [6] = assay: Dose required to cure 50% of Staphylococcus aureus infected mice when administered orally;; settings: po
Staphylococcus aureus [7] = assay: Inhibitory activity against Methicillin-resistant Staphylococcus aureus UC6685
Enterococcus faecalis = assay: Inhibitory activity against Enterococcus faecalis UC9217
Haemophilus influenzae = assay: Inhibitory activity against Haemophilus influenzae UC30063
Mus musculus [8] = assay: Dose required to cure 50% of Staphylococcus aureus infected mice in the presence of eperezolid when administered orally;vlaue ranges from 1.9-6.6; settings: po
Mus musculus [9] = assay: Dose required to cure 50% of Staphylococcus aureus infected mice when administered orally administered; settings: po
Mus musculus [10] = assay: Dose required to cure 50% of Staphylococcus aureus infected mice when orally administered; value ranges from 4.3-13.3; settings: po
Mus musculus [11] = assay: Dose(orally administered) required to cure 50% of Staphylococcus aureus infected mice in the presence of eperezolid when orally administered; value ranges from 2.2-6.1; settings: po
Mus musculus [12] = assay: Dose administered required to cure 50% of Staphylococcus aureus infected mice when administered orally; value ranges from 2.0-4.9; settings: po
Mus musculus [13] = assay: Dose required to cure 50% of Staphylococcus aureus infected mice in the presence of eperezolid when administered orally;value ranges from 1.9-6.6; settings: po
Mus musculus [14] = assay: Dose required to cure 50% of Staphylococcus aureus infected mice when administered orally; value ranges from 2.9-8.5; settings: po
Mus musculus [15] = assay: Dose required to cure 50% of Staphylococcus aureus infected mice in the presence of vancomycin when administered orally; value ranges from 2.5-6.4; settings: po
Mus musculus [16] = assay: Dose required to cure 50% of Staphylococcus aureus infected mice when administered orally; value ranges from 3.1-13.1; settings: po
Mus musculus [17] = assay: Dose required to cure 50% of Staphylococcus aureus infected mice in the presence of vancomycin when administered orally; value arnges from 1.0-3.2; settings: po

Row | SMILES | MIC (Streptococcus pneumoniae) | MIC [2] | MIC (Staphylococcus aureus [4]) | MIC (Moraxella catarrhalis) | MIC (Staphylococcus aureus [7]) | MIC (Enterococcus faecalis) | MIC (Haemophilus influenzae) | further results
1 | CC(=O)NC[C@H]1CN(c2ccc(-n3ccc(C=O)c3)c(F)c2)C(=O)O1 | < 0.06 µg/mL | 0.125 µg/mL (≈ 0.362 µM) | – | – | – | – | – | ED50 (Mus musculus [1]): 1.7 mg/kg/day; ED50 (Mus musculus [3]): > 20 mg/kg/day
2 | CC(=O)NC[C@H]1CN(c2ccc(-n3cnnn3)c(F)c2)C(=O)O1 | 1 µg/mL (≈ 3.12 µM) | 2 µg/mL (≈ 6.24 µM) | 4 µg/mL (≈ 12.5 µM) | 16 µg/mL (≈ 50 µM) | 2 µg/mL (≈ 6.24 µM) | 2 µg/mL (≈ 6.24 µM) | 16 µg/mL (≈ 50 µM) | ED50 (Mus musculus [5]): 7.8 mg/kg/day; ED50 (Mus musculus [6]): > 20 mg/kg/day
3 | CO/N=C/c1cn(-c2ccc(N3C[C@H](CNC(C)=O)OC3=O)cc2F)nn1 | 0.5 µg/mL (≈ 1.33 µM) | 1 µg/mL (≈ 2.66 µM) | 4 µg/mL (≈ 10.6 µM) | 16 µg/mL (≈ 42.5 µM) | 2 µg/mL (≈ 5.31 µM) | 4 µg/mL (≈ 10.6 µM) | > 16 µg/mL | ED50 (Mus musculus [8]): 3.8 mg/kg/day; ED50 (Mus musculus [9]): 8.6 mg/kg/day
4 | CC(=O)NC[C@H]1CN(c2ccc(-n3cnc(Cl)n3)c(F)c2)C(=O)O1 | < 0.125 µg/mL | 0.5 µg/mL (≈ 1.41 µM) | 4 µg/mL (≈ 11.3 µM) | 2 µg/mL (≈ 5.65 µM) | 2 µg/mL (≈ 5.65 µM) | 2 µg/mL (≈ 5.65 µM) | 16 µg/mL (≈ 45.2 µM) | ED50 (Mus musculus [1]): 5 mg/kg/day; ED50 (Mus musculus [3]): 9.4 mg/kg/day
5 | CO/N=C\c1ccn(-c2ccc(N3C[C@H](CNC(C)=O)OC3=O)cc2F)c1 | 0.25 µg/mL (≈ 0.668 µM) | 0.5 µg/mL (≈ 1.34 µM) | 1 µg/mL (≈ 2.67 µM) | 16 µg/mL (≈ 42.7 µM) | 1 µg/mL (≈ 2.67 µM) | 1 µg/mL (≈ 2.67 µM) | 16 µg/mL (≈ 42.7 µM) | ED50 (Mus musculus [10]): 7.3 mg/kg/day; ED50 (Mus musculus [11]): 3.5 mg/kg/day
6 | CN[C@H](CC(C)C)C(=O)N[C@H]1C(=O)N[C@@H](CC(N)=O)C(=O)N[C@H]2C(=O)N[C@H]3C(=O)N[C@H](C(=O)N[C@H](C(=O)O)c4cc(O)cc(O)c4-c4cc3ccc4O)[C@H](O)c3ccc(c(Cl)c3)Oc3cc2cc(c3O[C@@H]2O[C@H](CO)[C@@H](O)[C@H](O)[C@H]2O[C@H]2C[C@](C)(N)[C@H](O)[C@H](C)O2)Oc2ccc(cc2Cl)[C@H]1O [VANCOMYCIN] | – | – | – | – | – | – | – | ED50 (Mus musculus [3]): 3.9 mg/kg/day
7 | CC(=O)NC[C@H]1CN(c2ccc(-n3cnc(C)n3)c(F)c2)C(=O)O1 | 1 µg/mL (≈ 3 µM) | 2 µg/mL (≈ 6 µM) | 8 µg/mL (≈ 24 µM) | 16 µg/mL (≈ 48 µM) | 4 µg/mL (≈ 12 µM) | 8 µg/mL (≈ 24 µM) | > 16 µg/mL | –
8 | CC(=O)NC[C@H]1CN(c2ccc(-n3cc(/C=N/O)nn3)c(F)c2)C(=O)O1 | 0.5 µg/mL (≈ 1.38 µM) | 1 µg/mL (≈ 2.76 µM) | 8 µg/mL (≈ 22.1 µM) | 8 µg/mL (≈ 22.1 µM) | 2 µg/mL (≈ 5.52 µM) | 8 µg/mL (≈ 22.1 µM) | > 16 µg/mL | –
9 | CC(=O)NC[C@H]1CN(c2ccc(-n3ncc(C#N)n3)c(F)c2)C(=O)O1 | ≤ 0.125 µg/mL | ≤ 0.125 µg/mL | 0.5 µg/mL (≈ 1.45 µM) | 2 µg/mL (≈ 5.81 µM) | 0.5 µg/mL (≈ 1.45 µM) | 0.5 µg/mL (≈ 1.45 µM) | 8 µg/mL (≈ 23.2 µM) | ED50 (Mus musculus [12]): 3.2 mg/kg/day; ED50 (Mus musculus [13]): 3.8 mg/kg/day
10 | CC(=O)NC[C@H]1CN(c2ccc(-n3cc(C(N)=O)nn3)c(F)c2)C(=O)O1 | 0.5 µg/mL (≈ 1.38 µM) | 1 µg/mL (≈ 2.76 µM) | 4 µg/mL (≈ 11 µM) | 8 µg/mL (≈ 22.1 µM) | 4 µg/mL (≈ 11 µM) | 8 µg/mL (≈ 22.1 µM) | > 16 µg/mL | –
11 | CC(=O)NC[C@H]1CN(c2ccc(-n3ccc(C(N)=O)c3)c(F)c2)C(=O)O1 | 0.25 µg/mL (≈ 0.694 µM) | 1 µg/mL (≈ 2.78 µM) | 16 µg/mL (≈ 44.4 µM) | > 16 µg/mL | 8 µg/mL (≈ 22.2 µM) | 4 µg/mL (≈ 11.1 µM) | > 16 µg/mL | –
12 | CC(=O)NC[C@H]1CN(c2ccc(-n3ccc(NC(=O)CO)n3)c(F)c2)C(=O)O1 | 1 µg/mL (≈ 2.56 µM) | 4 µg/mL (≈ 10.2 µM) | 16 µg/mL (≈ 40.9 µM) | > 16 µg/mL | 16 µg/mL (≈ 40.9 µM) | 8 µg/mL (≈ 20.4 µM) | > 16 µg/mL | –
13 | CC(=O)NC[C@H]1CN(c2ccc(N3CCOCC3)c(F)c2)C(=O)O1 [LINEZOLID] | – | – | – | – | – | – | – | ED50 (Mus musculus [14]): 5.6 mg/kg/day; ED50 (Mus musculus [15]): 3.9 mg/kg/day
14 | CC(=O)NC[C@H]1CN(c2ccc(-n3ccc(OC(C)=O)n3)c(F)c2)C(=O)O1 | 1 µg/mL (≈ 2.66 µM) | 1 µg/mL (≈ 2.66 µM) | 8 µg/mL (≈ 21.3 µM) | 8 µg/mL (≈ 21.3 µM) | 8 µg/mL (≈ 21.3 µM) | 8 µg/mL (≈ 21.3 µM) | 16 µg/mL (≈ 42.5 µM) | –
15 | CC(=O)NC[C@H]1CN(c2ccc(-n3nnc(/C=N/O)n3)c(F)c2)C(=O)O1 | 0.5 µg/mL (≈ 1.38 µM) | 1 µg/mL (≈ 2.75 µM) | 4 µg/mL (≈ 11 µM) | 8 µg/mL (≈ 22 µM) | 4 µg/mL (≈ 11 µM) | 4 µg/mL (≈ 11 µM) | 16 µg/mL (≈ 44 µM) | –
16 | CC(=O)NC[C@H]1CN(c2ccc(-n3cnc(C#N)c3)c(F)c2)C(=O)O1 | 0.25 µg/mL (≈ 0.728 µM) | 0.5 µg/mL (≈ 1.46 µM) | 4 µg/mL (≈ 11.7 µM) | 4 µg/mL (≈ 11.7 µM) | 4 µg/mL (≈ 11.7 µM) | 2 µg/mL (≈ 5.83 µM) | 8 µg/mL (≈ 23.3 µM) | –
17 | CC(=O)NC[C@H]1CN(c2ccc(-n3cnc(N)n3)c(F)c2)C(=O)O1 | 1 µg/mL (≈ 2.99 µM) | 2 µg/mL (≈ 5.98 µM) | 8 µg/mL (≈ 23.9 µM) | 16 µg/mL (≈ 47.9 µM) | 4 µg/mL (≈ 12 µM) | 16 µg/mL (≈ 47.9 µM) | > 16 µg/mL | –
18 | CC(=O)NC[C@H]1CN(c2ccc(-n3cncn3)c(F)c2)C(=O)O1 | 1 µg/mL (≈ 3.13 µM) | 1 µg/mL (≈ 3.13 µM) | 4 µg/mL (≈ 12.5 µM) | 16 µg/mL (≈ 50.1 µM) | 4 µg/mL (≈ 12.5 µM) | 4 µg/mL (≈ 12.5 µM) | 32 µg/mL (≈ 100 µM) | ED50 (Mus musculus [16]): 5.7 mg/kg/day; ED50 (Mus musculus [17]): 2.4 mg/kg/day
19 | CC(=O)NC[C@H]1CN(c2ccc(-n3cnc(CO)n3)c(F)c2)C(=O)O1 | 1 µg/mL (≈ 2.86 µM) | 2 µg/mL (≈ 5.73 µM) | 16 µg/mL (≈ 45.8 µM) | 8 µg/mL (≈ 22.9 µM) | 16 µg/mL (≈ 45.8 µM) | 16 µg/mL (≈ 45.8 µM) | 16 µg/mL (≈ 45.8 µM) | –
20 | CC(=O)NC[C@H]1CN(c2ccc(-n3cc(NC(=O)OC(C)(C)C)cn3)c(F)c2)C(=O)O1 | 1 µg/mL (≈ 2.31 µM) | 2 µg/mL (≈ 4.61 µM) | 8 µg/mL (≈ 18.5 µM) | > 16 µg/mL | 4 µg/mL (≈ 9.23 µM) | 8 µg/mL (≈ 18.5 µM) | > 16 µg/mL | –
